According to patent US4340539A, “Derivatives of 6-bromo penicillanic acid” (priority 1980, dated 1982):
Where two headings read alike, the source gives them in different places.

Assays:
P. rettgeri = experiment: Antibacterial activity (MIC); type: cell-based; conditions: Providencia rettgeri; strain A21203
B. thetaiotaomicron = experiment: Anti-Bacteroides activity (MIC, agar dilution), alone and in combination with BL-P2013; type: cell-based
Description: *Minimum inhibitory concentration (MIC) determined by the agar dilution
method using 50X dilutions of 24 hour cultures as inocula dispensed by th
Steer's inoculator. Assay medium composed of Brucella Agar plus 5% laked
sheep blood and 10 mcg/ml vitamin K.

Bacteroides species = experiment: as above; type: cell-based
P. vulgaris = experiment: Antibacterial activity (MIC); type: cell-based; conditions: Proteus vulgaris; strain A21559
K. pneumoniae = experiment: Antibacterial activity (MIC); type: cell-based
E. cloacae = experiment: Antibacterial activity (MIC); type: cell-based; conditions: Enterobacter cloacae
[1] = tested on: β-lactamase-producing bacteria; experiment: Protection of ceforanide and amoxicillin from destruction by β-lactamase-producing bacteria; conditions: in vitro and in vivo, in combination
S. pyogenes = experiment: Antibacterial activity (MIC); type: cell-based; conditions: Streptococcus pyogenes; strain A-9604
P. mirabilis = experiment: Antibacterial activity (MIC); type: cell-based; conditions: Proteus mirabilis; strain A-9900
S. aureus A-9606 = experiment: Therapeutic efficacy in mice experimentally infected with a beta-lactamase strain of Staphylococcus aureus (Table 3); type: in vivo; conditions: for ED50: Staphylococcus aureus, A9606, challenge 5 × 10^8, read-out: PD50/Treatment
Description: Treatment schedule: Drugs administered 0 and 2 hours postinfection.

[2] = tested on: β-lactamase producing strains of S. aureus; experiment: animal or person; type: in vivo, mice; conditions: Staphylococcus aureus, in Mus musculus, po
Description: (§1) Drugs were administered orally at 0 and 2 hours postinfection.
(§2) Drugs were suspended in TCMC.

[3] = tested on: β-lactamase producing strains of E. coli; experiment: animal or person; type: in vivo, mice; conditions: Escherichia coli, in Mus musculus, po
Description: as §1, §2

S. faecalis = experiment: Antibacterial activity (MIC); type: cell-based; conditions: Enterococcus faecalis; strain A20688
[4] = Blood levels after oral administration to mice (Table 4); type: in vivo; conditions: mouse; for concentration at 0.5 h: 30 min; for concentration at 1 h: 60 min; for concentration at 2 h: 120 min
P. morganii = experiment: Antibacterial activity (MIC); type: cell-based; conditions: Morganella morganii; strain A15153
P. aeruginosa = experiment: Antibacterial activity (MIC); type: cell-based
S. marcescens = experiment: Antibacterial activity (MIC); type: cell-based; conditions: Serratia marcescens; strain A20019
bacteria = experiment: Antibacterial activity (statement); type: cell-based
S. pneumoniae = experiment: Antibacterial activity (MIC); type: cell-based; conditions: Streptococcus pneumoniae; strain A-9585
B. fragilis = experiment: Anti-Bacteroides activity (MIC, agar dilution), alone and in combination with BL-P2013; type: cell-based
E. coli = experiment: Antibacterial activity (MIC); type: cell-based; conditions: Escherichia coli
β-lactamases = experiment: Inhibition of β-lactamases; type: biochemical
S. aureus = experiment: Antibacterial activity (MIC); type: cell-based; conditions: Staphylococcus aureus
[5] = 100 mg/kg, oral 100 mg/kg, assay organism E. coli A-9675, read-out: Blood level
[6] = 100 mg/kg, oral 100 mg/kg, assay organism S. aureus A-9606, read-out: Blood level
[7] = 200 mg/kg, oral 200 mg/kg, assay organism S. aureus A-9606, read-out: Blood level

With `CC1(CCl)C(C(=O)O)N2C(=O)CC2S1(=O)=O` (stereo not drawn) [BL-P2013, Potassium 2β-Chloromethyl-2α-methylpenam-3α-carboxylate Sulfone] the MIC (P. rettgeri) was > 125 µg/mL, the MIC (B. thetaiotaomicron; Bacteroides thetaiotaomicron, strain A22277, β-lactamase +, read-out: MIC) was 63 µg/mL and the MIC (B. thetaiotaomicron; strain A22279, β-lactamase +) was 63 µg/mL. The MIC (Bacteroides species; Bacteroides) was 63 µg/mL, the MIC (Bacteroides species; Bacteroides, strain A20929, β-lactamase +, read-out: MIC) was 32 µg/mL and the MIC (Bacteroides species; Bacteroides, strain A20930, β-lactamase +, read-out: MIC) was 125 µg/mL. The MIC (Bacteroides species; Bacteroides, strain A20931, β-lactamase +, read-out: MIC) was 32 µg/mL, the MIC (Bacteroides species; Bacteroides, strain A20934, β-lactamase +, read-out: MIC) was 32 µg/mL and the MIC (Bacteroides species; Bacteroides, strain A20935, β-lactamase -, read-out: MIC) was 125 µg/mL. For the same molecule, the MIC (Bacteroides species; Bacteroides, strain A21959, β-lactamase +, read-out: MIC) was 32 µg/mL, the MIC (Bacteroides species; strain A20927-1, β-lactamase -) was 63 µg/mL and the MIC (Bacteroides species; strain A20933, β-lactamase +) was 63 µg/mL. The MIC (P. vulgaris) was > 125 µg/mL, the MIC (K. pneumoniae; Klebsiella pneumoniae, strain A15130, read-out: MIC) was > 125 µg/mL and the MIC (K. pneumoniae; strain A20468) was > 125 µg/mL. The MIC (E. cloacae; strain A-9656) was > 125 µg/mL, the MIC (E. cloacae; strain A-9659) was > 125 µg/mL and the “protection of ceforanide and amoxicillin from destruction” value [1] was “protected ceforanide and amoxicillin from destruction by β-lactamase-producing bacteria in vitro and in vivo”. For the same molecule, the MIC (S. pyogenes) was 63 µg/mL, the MIC (P. mirabilis) was > 125 µg/mL and the PD50/Treatment (S. aureus A-9606; IM, challenge 7 × 10^8) was > 50 mg/kg. The ED50 (S. aureus A-9606; IM) was > 50 mg/kg, the ED50 (S. aureus A-9606; PO) was > 200 mg/kg and the ED50 ([2]; read-out: PD50/Treatment, oral, S. aureus A9606, challenge 2 × 10^9) was > 200 mg/kg. The ED50 ([2]; read-out: PD50/Treatment, oral, S. aureus A9606, challenge 7 × 10^8) was > 200 mg/kg, the ED50 ([2]; read-out: PD50/Treatment, oral, S. aureus A15091, challenge 4 × 10^8) was > 200 mg/kg and the ED50 ([2]; read-out: PD50/Treatment, oral, S. aureus A15091, challenge 5 × 10^8) was > 200 mg/kg. For the same molecule, the ED50 ([2]; read-out: PD50/Treatment, oral, S. aureus A20379, challenge 5 × 10^8) was > 200 mg/kg, the ED50 ([2]; read-out: PD50/Treatment, oral, S. aureus A20379, challenge 6 × 10^8) was 174 mg/kg and the ED50 ([3]; read-out: PD50/Treatment, oral, E. coli A9675, challenge 6 × 10^5) was > 200 mg/kg. For the same molecule, the ED50 ([3]; read-out: PD50/Treatment, oral, E. coli A9675, challenge 7 × 10^5) was > 100 mg/kg, the ED50 ([3]; read-out: PD50/Treatment, oral, E. coli A9675, challenge 8 × 10^5) was > 200 mg/kg and the ED50 ([3]; read-out: PD50/Treatment, oral, E. coli A20649, challenge 5 × 10^5) was > 200 mg/kg. The ED50 ([3]; read-out: PD50/Treatment, oral, E. coli A20649, challenge 6 × 10^5) was > 200 mg/kg, the ED50 ([3]; read-out: PD50/Treatment, oral, E. coli A21223, challenge 6 × 10^5) was > 200 mg/kg and the ED50 ([3]; read-out: PD50/Treatment, oral, E. coli A21223, challenge 7 × 10^5 (first line)) was > 200 mg/kg. The ED50 ([3]; read-out: PD50/Treatment, oral, E. coli A21223, challenge 7 × 10^5 (third line)) was > 200 mg/kg, the MIC (S. faecalis) was > 125 µg/mL and the concentration at […] ([4]; 100 mg/kg, oral 100 mg/kg, 15 min, assay organism E. coli A-9675, read-out: Blood level) was 4500 ng/mL. It also gave a concentration at […] ([4]; 100 mg/kg, oral 100 mg/kg, 15 min, assay organism S. aureus A-9606, read-out: Blood level) of 4600 ng/mL, a concentration at 0.5 h [4, 5] of 5100 ng/mL and a concentration at 0.5 h [4, 6] of 4100 ng/mL. The concentration at 1 h [4, 6] was 3000 ng/mL, the concentration at […] ([4]; 100 mg/kg, oral 100 mg/kg, 90 min, assay organism E. coli A-9675, read-out: Blood level) was 2300 ng/mL and the concentration at […] ([4]; 100 mg/kg, oral 100 mg/kg, 90 min, assay organism S. aureus A-9606, read-out: Blood level) was < 2600 ng/mL. The concentration at 2 h [4, 5] was 1500 ng/mL, the concentration at 2 h [4, 6] was < 2600 ng/mL and the concentration at […] ([4]; 100 mg/kg, oral 100 mg/kg, 150 min, assay organism S. aureus A-9606, read-out: Blood level) was < 2600 ng/mL. For the same molecule, the half-life ([4]; 100 mg/kg, oral 100 mg/kg, assay organism E. coli A-9675) was 50 min, the concentration at […] ([4]; 200 mg/kg, oral 200 mg/kg, 15 min, assay organism S. aureus A-9606, read-out: Blood level) was 7400 ng/mL and the concentration at 0.5 h [4, 7] was 9800 ng/mL. It also gave a concentration at 1 h [4, 7] of 7100 ng/mL, a concentration at […] ([4]; 200 mg/kg, oral 200 mg/kg, 90 min, assay organism S. aureus A-9606, read-out: Blood level) of 4100 ng/mL and a concentration at 2 h [4, 7] of 2800 ng/mL. For the same molecule, the concentration at […] ([4]; 200 mg/kg, oral 200 mg/kg, 150 min, assay organism S. aureus A-9606, read-out: Blood level) was < 2600 ng/mL, the half-life ([4]; 200 mg/kg, oral 200 mg/kg, assay organism S. aureus A-9606) was 50 min and the MIC (P. morganii) was > 125 µg/mL. The MIC (P. aeruginosa; Pseudomonas aeruginosa, strain A-9843A, read-out: MIC) was > 125 µg/mL, the MIC (P. aeruginosa; strain A21213) was > 125 µg/mL and the MIC (S. marcescens) was > 125 µg/mL. The antibacterial activity (bacteria) was “at best a very weak antibacterial agent”, the MIC (S. pneumoniae) was 16 µg/mL and the MIC (B. fragilis; strain A21875, β-lactamase +) was 63 µg/mL. For the same molecule, the MIC (B. fragilis; strain A21916, β-lactamase +, read-out: MIC) was > 125 µg/mL, the MIC (B. fragilis; strain A22021, β-lactamase +, read-out: MIC) was 32 µg/mL and the MIC (B. fragilis; strain A22053, β-lactamase +) was 63 µg/mL. The MIC (B. fragilis; strain A22533, β-lactamase +, read-out: MIC) was 32 µg/mL, the MIC (B. fragilis; strain A22534, β-lactamase +, read-out: MIC) was 125 µg/mL and the MIC (B. fragilis; strain A22535, β-lactamase +, read-out: MIC) was 125 µg/mL. It also gave an MIC (B. fragilis; strain A22693, β-lactamase +) of 63 µg/mL, an MIC (B. fragilis; strain A22694, β-lactamase +) of 63 µg/mL and an MIC (B. fragilis; strain A22695, β-lactamase +, read-out: MIC) of 32 µg/mL. It also gave an MIC (B. fragilis; strain A22696, β-lactamase +) of 63 µg/mL, an MIC (B. fragilis; strain A22697, β-lactamase +) of 63 µg/mL and an MIC (B. fragilis; strain A22792, β-lactamase +, read-out: MIC) of 32 µg/mL. The MIC (B. fragilis; strain A22793, β-lactamase +, read-out: MIC) was 32 µg/mL, the MIC (B. fragilis; strain A22794, β-lactamase +, read-out: MIC) was 32 µg/mL and the MIC (B. fragilis; strain A22795, β-lactamase +, read-out: MIC) was 32 µg/mL. For the same molecule, the MIC (B. fragilis; strain A22797, β-lactamase +) was 63 µg/mL, the MIC (B. fragilis; strain A22798, β-lactamase +) was 63 µg/mL and the MIC (E. coli; strain A15119) was > 125 µg/mL. The MIC (E. coli; strain A20341-1) was > 125 µg/mL, the β-lactamase inhibition (β-lactamases) was “inhibits β-lactamases” and the MIC (S. aureus; strain A15097, Meth-Res) was > 125 µg/mL. For the same molecule, the MIC (S. aureus; strain A-9537) was > 125 µg/mL, the MIC (S. aureus; strain A-9537, + 50% serum) was > 125 µg/mL and the MIC (S. aureus; strain A-9606, Pen-Res) was > 125 µg/mL.
